pIC50: −log10 of the molar value. Where “and” joins values, the source holds several entries; their conditions need not be identical. Equal entries are not always repeated. A value given as a limit tells only on which side of the number the result lay.

The test system of the experiment is 883617-216-R-J1-PDC complex spheroid viability. The experiment in a line: Anticancer human tumor 883617-216-R-J1-PDC patient-derived bladder carcinoma cell line growth inhibition. The following applies: for viability, T/C: stronger effect = lower value. Summed up: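 Complex spheroids of tumor cells with HUVEC and human MSCs, exposed to iadademstat combined with other agents. Each agent tested in half-log steps from near clinical Cmax (else 10 microM top), DMSO ≤0.25%.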

Setting [1] is: curve of first compound, second compound 0.1 µM.
Setting [2] is: curve of first compound, second compound 0.316 µM.
[3] abbreviates: curve of first compound, second compound 1 µM.
Setting [4] is: curve of first compound, second compound 3.16 µM.
The mark [5] stands for this setting: curve of first compound, second compound 10 µM.
Setting [6] is: second compound 0.1 µM, first compound 0.0316 µM.
[7] abbreviates: second compound 0.1 µM, first compound 0.1 µM.
[8] abbreviates: second compound 0.1 µM, first compound 0.316 µM.
Setting [9] is: second compound 0.1 µM, first compound 1 µM.
Where [10] appears, read: second compound 0.1 µM, first compound 3.16 µM.
Where [11] appears, read: second compound 0.1 µM, first compound 10 µM.
[12] abbreviates: second compound 0.316 µM, first compound 0.0316 µM.
The mark [13] stands for this setting: second compound 0.316 µM, first compound 0.1 µM.
[14] abbreviates: second compound 0.316 µM, first compound 0.316 µM.
Setting [15] is: second compound 0.316 µM, first compound 1 µM.
[16] abbreviates: second compound 0.316 µM, first compound 3.16 µM.
Where [17] appears, read: second compound 0.316 µM, first compound 10 µM.
[18] abbreviates: second compound 1 µM, first compound 0.0316 µM.
Setting [19] is: second compound 1 µM, first compound 0.1 µM.
The mark [20] stands for this setting: second compound 1 µM, first compound 0.316 µM.
Setting [21] is: second compound 1 µM, first compound 1 µM.
The mark [22] stands for this setting: second compound 1 µM, first compound 3.16 µM.
The mark [23] stands for this setting: second compound 1 µM, first compound 10 µM.
Where [24] appears, read: second compound 3.16 µM, first compound 0.0316 µM.
Setting [25] is: second compound 3.16 µM, first compound 0.1 µM.
Setting [26] is: second compound 3.16 µM, first compound 0.316 µM.
The mark [27] stands for this setting: second compound 3.16 µM, first compound 1 µM.
The mark [28] stands for this setting: second compound 3.16 µM, first compound 3.16 µM.
The mark [29] stands for this setting: second compound 3.16 µM, first compound 10 µM.
Setting [30] is: second compound 10 µM, first compound 0.0316 µM.
The mark [31] stands for this setting: second compound 10 µM, first compound 0.1 µM.
Setting [32] is: second compound 10 µM, first compound 0.316 µM.
Setting [33] is: second compound 10 µM, first compound 1 µM.
[34] abbreviates: second compound 10 µM, first compound 3.16 µM.
Where [35] appears, read: second compound 10 µM, first compound 10 µM.
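Also: exposure lasted seven days after three days of spheroid growth.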
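For viability, T/C in this document: 100% = DMSO vehicle control luminescence.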

Take `Nc1ccn(C2OC(CO)C(O)C2(F)F)c(=O)n1` (stereo not drawn): the viability, T/C was 24.4% and 23% (compound 0.000949 µM); 20.5% and 20.8% (compound 0.003 µM); 21.2% and 23% (compound 0.00949 µM); 23.5% and 25.3% (compound 0.03 µM); 23.3% and 24.1% (compound 0.0949 µM); 21.9% and 23.4% (compound 0.3 µM). In addition, under “curve of compound”, the pIC50 was over 9.02.

As to `Nc1ncn(C2CC(O)C(CO)S2)c(=O)n1` (stereo not drawn), the viability, T/C was 108% and 85.9% (compound 0.000949 µM); 105% and 77% (compound 0.003 µM); 87.3% and 55.7% (compound 0.00949 µM); 69% and 39.4% (compound 0.03 µM); 58% and 34.1% (compound 0.0949 µM); 44% and 27.4% (compound 0.3 µM).

For `CC(C)c1c(-c2ccccc2)nc2c(C#N)c[nH]n2c1=O` + NC1CCC(NC2CC2c2ccccc2)CC1, the negative-log IC50 (pIC50) was under 5.00 under setting [1]; under 5.00 under setting [2]; under 5.00 under setting [3]; under 5.00 under setting [4]; under 5.00 under setting [5]. For the same compound, the viability, T/C under setting [6] is 106%; the viability, T/C under setting [7] was 102%; the viability, T/C under setting [8] was 101%; the viability, T/C under setting [9] is 103%; the viability, T/C under setting [10] is 97.5%; the viability, T/C under setting [11] is 93.8%. Besides, the viability, T/C is, setting by setting: under setting [12], 107%; under setting [13], 109%; under setting [14], 108%; under setting [15], 105%; under setting [16], 103%; under setting [17], 95%. In addition, the viability, T/C is 97.3% under setting [18]; 91.8% under setting [19]; 101% under setting [20]; 95% under setting [21]; 93.6% under setting [22]; 86% under setting [23]. Also, the viability, T/C is 104% under setting [24]; 99.7% under setting [25]; 97.8% under setting [26]; 98.2% under setting [27]; 91.2% under setting [28]; 89.9% under setting [29]. In addition, the viability, T/C was 103% under setting [30]; 106% under setting [31]; 112% under setting [32]; 98.2% under setting [33]; 95.2% under setting [34]; 86.1% under setting [35].

`COc1ccc([C@@H](O)c2cc(-c3ncnc4cc(N5CCOCC5)ccc34)c(F)cc2Cl)nn1` + NC1CC1c1ccc(-c2cccc(O)c2)cc1: the pIC50 is 6.06 under setting [1]; 5.99 under setting [2]; 6.04 under setting [3]; 6.15 under setting [4]; 6.52 under setting [5]. Moreover, the viability, T/C was 111% under setting [6]; 102% under setting [7]; 71.5% under setting [8]; 46.1% under setting [9]; 30.6% under setting [10]; 15.1% under setting [11]. Further, the viability, T/C under setting [12] was 109%; the viability, T/C under setting [13] was 93.3%; the viability, T/C under setting [14] was 74.4%; the viability, T/C under setting [15] is 48.8%; the viability, T/C under setting [16] was 31.5%; the viability, T/C under setting [17] is 15.3%. For the same compound, the viability, T/C reads like this: under setting [18], 113%; under setting [19], 98.3%; under setting [20], 75%; under setting [21], 43.8%; under setting [22], 32.7%; under setting [23], 15.2%. The viability, T/C under setting [24] was 116%; the viability, T/C under setting [25] was 93.8%; the viability, T/C under setting [26] was 58.2%; the viability, T/C under setting [27] is 47.2%; the viability, T/C under setting [28] was 27%; the viability, T/C under setting [29] was 14.3%. The viability, T/C is 88% under setting [30]; 71.9% under setting [31]; 42.1% under setting [32]; 39% under setting [33]; 21.8% under setting [34]; 12.4% under setting [35].

Take `Nc1ccccc1NC(=O)c1ccc(CNC(=O)OCc2cccnc2)cc1`: the viability, T/C was 110% and 105% (compound 0.00949 µM); 94.2% and 104% (compound 0.03 µM); 64.6% and 56.3% (compound 0.0949 µM); 33.3% and 36% (compound 0.3 µM); 15.7% and 17.6% (compound 0.949 µM); 0.87% and 1.11% (compound 3 µM). In addition, for the setting “curve of compound”, the negative logarithm of the IC50 (pIC50) is 6.78 and 6.79.

Regarding `Cn1ncnc1C1c2n[nH]c(=O)c3cc(F)cc(c23)NC1c1ccc(F)cc1` (stereo not drawn), the viability, T/C (compound 0.000316 µM) was 104% and 89.5%; the viability, T/C (compound 0.001 µM) was 104% and 89.1%; the viability, T/C (compound 0.00316 µM) was 105% and 70.6%; the viability, T/C (compound 0.01 µM) was 75.7% and 48.9%; the viability, T/C (compound 0.0316 µM) is 64.4% and 38.5%; the viability, T/C (compound 0.1 µM) was 54.2% and 38%.

With `CC1COCCN1c1cc(-c2ccnn2C)c2ccnc(-c3ccn[nH]3)c2n1` (stereo not drawn), the viability, T/C runs as follows: (compound 0.00316 µM) 83.2% and 50.8%; (compound 0.01 µM) 64.8% and 42.2%; (compound 0.0316 µM) 47% and 33.7%; (compound 0.1 µM) 35% and 27.4%; (compound 0.316 µM) 34.6% and 23.9%; (compound 1 µM) 26.3% and 21.2%. In addition, the pIC50 (curve of compound) was 7.58 and 8.45.

As for `Nc1ccccc1NC(=O)c1ccc(CNC(=O)OCc2cccnc2)cc1` + NC1CC1c1ccc(-c2cccc(O)c2)cc1, the pIC50 is 6.72 under setting [1]; 6.74 under setting [2]; 6.75 under setting [3]; 6.84 under setting [4]; 6.99 under setting [5]. The viability, T/C reads like this: (second compound 0.1 µM, first compound 0.00949 µM) 103%; (second compound 0.1 µM, first compound 0.03 µM) 106%; (second compound 0.1 µM, first compound 0.0949 µM) 64.8%; (second compound 0.1 µM, first compound 0.3 µM) 36.2%; (second compound 0.1 µM, first compound 0.949 µM) 19.2%; (second compound 0.1 µM, first compound 3 µM) 0.5%. Besides, the viability, T/C runs as follows: (second compound 0.316 µM, first compound 0.00949 µM) 110%; (second compound 0.316 µM, first compound 0.03 µM) 96%; (second compound 0.316 µM, first compound 0.0949 µM) 64.8%; (second compound 0.316 µM, first compound 0.3 µM) 36.9%; (second compound 0.316 µM, first compound 0.949 µM) 15.8%; (second compound 0.316 µM, first compound 3 µM) 0.25%. The viability, T/C was 116% (second compound 1 µM, first compound 0.00949 µM); 96.6% (second compound 1 µM, first compound 0.03 µM); 62.7% (second compound 1 µM, first compound 0.0949 µM); 39.1% (second compound 1 µM, first compound 0.3 µM); 12.6% (second compound 1 µM, first compound 0.949 µM); 0.26% (second compound 1 µM, first compound 3 µM). In addition, the viability, T/C runs as follows: (second compound 3.16 µM, first compound 0.00949 µM) 115%; (second compound 3.16 µM, first compound 0.03 µM) 91.2%; (second compound 3.16 µM, first compound 0.0949 µM) 57.3%; (second compound 3.16 µM, first compound 0.3 µM) 35.6%; (second compound 3.16 µM, first compound 0.949 µM) 11.9%; (second compound 3.16 µM, first compound 3 µM) 0.25%. Besides, the viability, T/C reads like this: (second compound 10 µM, first compound 0.00949 µM) 91.5%; (second compound 10 µM, first compound 0.03 µM) 80.7%; (second compound 10 µM, first compound 0.0949 µM) 43.5%; (second compound 10 µM, first compound 0.3 µM) 33.9%; (second compound 10 µM, first compound 0.949 µM) 13.6%; (second compound 10 µM, first compound 3 µM) 0.23%.

As a reminder, the viability, T/C is the ratio of treated to control. By pIC50 is commonly meant the IC50 on a negative log10 scale, so that one unit is a factor of ten.

The values are drawn from PubChem BioAssay AID1918945 (Molecular Pharmacology Branch, DTP, NCI, 2023).
